# Assays:
# Format in all cases: in vivo
# Amaranthus retroflexus = assay: Pre-emergence herbicidal action, AMARE; set-up: key to Herbicidal action against AMARE: % activity: 100 = plants have died, 0 = like control plants; conditions: for herbicidal action AMARE / herbicidal activity AMARE: dosage 320 g/ha; for Herbicidal action against AMARE: comparative experiment, 80 g of a.i./ha; for herbicidal activity AMARE: scored visually after 3 weeks vs untreated controls (100% = plants have died)
# In short: (§1)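 Greenhouse pre-emergence test: formulated compound (WP or EC) applied in water to the soil covering sown seeds, 600–800 l/ha, 0.2% wetting agent. Scored visually in percent at 3 weeks versus untreated plants.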
# Stellaria media = assay: Pre-emergence herbicidal action, STEME; conditions: dosage 320 g/ha; for herbicidal activity STEME: scored visually after 3 weeks vs untreated controls (100% = plants have died)
# In short: as §1
# Setaria viridis = assay: Post-emergence herbicidal action, SETVI; set-up: key: % herbicidal action vs untreated; 100 = plants died, 0 = like control
# In short: (§2)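 Percent herbicidal effect was rated visually about 3 weeks after treatment, relative to untreated plants (0% = like control, 100% = dead). Compounds, formulated as WP or EC, went on as aqueous spray (600–800 l/ha, 0.2% wetting agent) to one-leaf-stage plants 2–3 weeks post-sowing in sandy loam.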
# Abutilon theophrasti = assay: Pre-emergence herbicidal action, ABUTH; set-up: key to Herbicidal action against ABUTH: % activity: 100 = plants have died, 0 = like control plants; conditions: for herbicidal action ABUTH / herbicidal activity ABUTH: dosage 320 g/ha; for Herbicidal action against ABUTH: comparative experiment, 80 g of a.i./ha; for herbicidal activity ABUTH: scored visually after 3 weeks vs untreated controls (100% = plants have died)
# In short: as §1
# Alopecurus myosuroides = assay: Post-emergence herbicidal action, ALOMY; set-up: key: % herbicidal action vs untreated; 100 = plants died, 0 = like control; conditions: for Herbicidal action against ALOMY: comparative experiment, 20 g of a.i./ha
# In short: as §2
# Pharbitis purpurea = assay: Pre-emergence herbicidal action, PHBPU; conditions: dosage 320 g/ha, scored visually after 3 weeks vs untreated controls (100% = plants have died)
# In short: as §1
# [1] = comparative experiment, post-emergence, 20 g of a.i./ha
SMILES,herbicidal action AMARE (Amaranthus retroflexus) [%],herbicidal action STEME (Stellaria media) [%],herbicidal action SETVI (Setaria viridis; Dosage 80 g/ha),herbicidal action ABUTH (Abutilon theophrasti) [%],herbicidal action ALOMY (Alopecurus myosuroides; Dosage 80 g/ha),other results
Cc1ccc(C(=O)Nc2nnnn2C)c(Cl)c1C[S+](C)[O-] (racemic) [Example 1-288],100,90,100,90,80,
Cc1c(C(=O)Nc2nnnn2C)ccc(C(F)F)c1C[S+](C)[O-] (stereo not drawn) [Example 1-108],100,,80,100,,
COc1c(C(=O)Nc2nnnn2C)ccc(C(F)(F)F)c1C[S+](C)[O-] (stereo not drawn) [Example 1-135],100,80,100,100,,
CSCc1c(C)ccc(C(=O)Nc2nnnn2C)c1Cl [Example 1-287],90,90,90,100,90,
CCS(=O)(=O)Cc1c(C(F)(F)F)ccc(C(=O)Nc2nnnn2C)c1Br [Example 1-385],,,,,,"Herbicidal action against AMARE (Amaranthus retroflexus): 100; herbicidal activity AMARE (Amaranthus retroflexus): 100%; herbicidal activity STEME (Stellaria media): 90%; Herbicidal action against SETVI (Setaria viridis; [1]): 90; herbicidal action SETVI (Setaria viridis; post-emergence, dosage 80 g/ha): 100%; Herbicidal action against ABUTH (Abutilon theophrasti): 100; herbicidal activity ABUTH (Abutilon theophrasti): 100%; Herbicidal action against ALOMY (Alopecurus myosuroides; post-emergence): 80; herbicidal action ALOMY (Alopecurus myosuroides; post-emergence, dosage 80 g/ha): 90%"
CSCc1c(Cl)ccc(C(=O)Nc2nnnn2C)c1Cl [Example 1-559],100,90,,100,,"herbicidal action SETVI (Setaria viridis; post-emergence, dosage 80 g/ha): 100%; herbicidal action ALOMY (Alopecurus myosuroides; post-emergence, dosage 80 g/ha): 90%"
COc1c(C(=O)Nc2nnnn2C)ccc(Cl)c1CSC [Example 1-570],100,80,,90,,"Herbicidal action against SETVI (Setaria viridis; post-emergence, dosage 80 g/ha): 80"
CCSCc1c(C(F)(F)F)ccc(C(=O)Nc2nnnn2CC)c1C [Example 2-86],100,,,100,,"herbicidal action SETVI (Setaria viridis; post-emergence, dosage 80 g/ha): 90%; herbicidal action ALOMY (Alopecurus myosuroides; post-emergence, dosage 80 g/ha): 90%"
CCn1nnnc1NC(=O)c1ccc(C(F)(F)F)c(CS(=O)(=O)CC)c1C [Example 2-88],100,,90,100,90,
CCn1nnnc1NC(=O)c1ccc(C(F)F)c(C[S+](C)[O-])c1C (stereo not drawn) [Example 2-108],100,,90,100,80,
CCn1nnnc1NC(=O)c1ccc(C(F)F)c(CSC)c1SC [Example 2-170],,,90,,80,herbicidal activity AMARE (Amaranthus retroflexus): 100%; herbicidal activity STEME (Stellaria media): 100%; herbicidal activity ABUTH (Abutilon theophrasti): 100%
CCn1nnnc1NC(=O)c1ccc(S(C)(=O)=O)c(CS(C)(=O)=O)c1Cl [Example 2-280],100,80,,100,,"Herbicidal action against SETVI (Setaria viridis; post-emergence, dosage 80 g/ha): 80"
CCn1nnnc1NC(=O)c1ccc(C(F)(F)F)c(CS(=O)(=O)CC)c1Cl [Example 2-301],100,80,90,100,80,
CCn1nnnc1NC(=O)c1ccc(C(F)(F)F)c(CSCC(F)(F)F)c1Cl [Example 2-311],,,100,,90,herbicidal activity AMARE (Amaranthus retroflexus): 100%; herbicidal activity STEME (Stellaria media): 100%; herbicidal activity ABUTH (Abutilon theophrasti): 100%
CCn1nnnc1NC(=O)c1ccc(Cl)c(CSC)c1Cl [Example 2-559],100,90,100,100,90,
CCCn1nnnc1NC(=O)c1ccc(S(C)(=O)=O)c(CSC)c1C [Example 3-37],100,90,90,80,,
CCCn1nnnc1NC(=O)c1ccc(S(C)(=O)=O)c(CS(C)(=O)=O)c1C [Example 3-39],100,,90,100,,
CCCn1nnnc1NC(=O)c1ccc(C(F)(F)F)c(CSCC)c1C [Example 3-86],100,,90,100,,
CCCn1nnnc1NC(=O)c1ccc(C(F)(F)F)c(C[S+](C)[O-])c1OC (stereo not drawn) [Example 3-135],100,100,100,100,,
CCCn1nnnc1NC(=O)c1ccc(C(F)(F)F)c(CSC)c1SC [Example 3-161],100,100,100,100,,
CCCn1nnnc1NC(=O)c1ccc(C(F)F)c(CSC)c1SC [Example 3-170],,,,,,herbicidal activity AMARE (Amaranthus retroflexus): 100%; herbicidal activity STEME (Stellaria media): 100%; herbicidal activity ABUTH (Abutilon theophrasti): 100%; herbicidal activity PHBPU (Pharbitis purpurea): 80%
CCCn1nnnc1NC(=O)c1ccc(C(F)F)c(C[S+](C)[O-])c1SC (stereo not drawn) [Example 3-171],,,,,,herbicidal activity AMARE (Amaranthus retroflexus): 100%; herbicidal activity STEME (Stellaria media): 100%; herbicidal activity ABUTH (Abutilon theophrasti): 100%; herbicidal activity PHBPU (Pharbitis purpurea): 90%
CCCn1nnnc1NC(=O)c1ccc(C(F)F)c(CS(C)(=O)=O)c1SC [Example 3-172],,,,,,herbicidal activity AMARE (Amaranthus retroflexus): 100%; herbicidal activity STEME (Stellaria media): 100%; herbicidal activity ABUTH (Abutilon theophrasti): 100%; herbicidal activity PHBPU (Pharbitis purpurea): 80%
CCCn1nnnc1NC(=O)c1ccc(C(F)(F)F)c(CS(=O)(=O)CC)c1Cl [Example 3-301],100,90,90,100,,
CCCn1nnnc1NC(=O)c1ccc(C(F)(F)F)c(CSCC(F)(F)F)c1Cl [Example 3-311],100,90,80,100,100,
CCCn1nnnc1NC(=O)c1ccc(I)c(C[S+](C)[O-])c1Cl (stereo not drawn) [Example 3-363],100,100,100,100,80,
CCCn1nnnc1NC(=O)c1ccc(C(F)(F)F)c(CS(C)(=O)=O)c1Br [Example 3-382],100,100,100,100,,
"CCS(=O)(=O)c1c(C(F)(F)F)ccc(C(=O)Nc2nnnn2C)c1Br [Example V-13, 2-bromo-3-(ethylsulfonyl)-N-(1-methyl-1-1H-tetrazol-5-yl)-4-(trifluoromethyl)benzamide, reference compound]",,,,,,Herbicidal action against AMARE (Amaranthus retroflexus): 0; Herbicidal action against SETVI (Setaria viridis; [1]): 0; Herbicidal action against ABUTH (Abutilon theophrasti): 0; Herbicidal action against ALOMY (Alopecurus myosuroides; post-emergence): 0

# — patent US12492173B2, “Herbicidal substituted N-tetrazolyl aryl carboxamides” (Bayer Aktiengesellschaft, priority 2019, dated 2025)
